Assay results: patent US7514254B2, “Plant-derived alkaline alpha-galactosidase” (The State of Israel, Ministry of Agriculture & Rural …, priority 1998, dated 2009)
“Also recorded” adds a separate entry of the source.

Assays:
[1] = biological target: T1, melon (Cucumis melo) fruit alkaline alpha-galactosidase Form I (Cucumis melo, UniProt Q84NI7); test: Substrate kinetics (Lineweaver-Burk) of alkaline alpha-galactosidase Form I
T1 sequence (Q84NI7 1-754): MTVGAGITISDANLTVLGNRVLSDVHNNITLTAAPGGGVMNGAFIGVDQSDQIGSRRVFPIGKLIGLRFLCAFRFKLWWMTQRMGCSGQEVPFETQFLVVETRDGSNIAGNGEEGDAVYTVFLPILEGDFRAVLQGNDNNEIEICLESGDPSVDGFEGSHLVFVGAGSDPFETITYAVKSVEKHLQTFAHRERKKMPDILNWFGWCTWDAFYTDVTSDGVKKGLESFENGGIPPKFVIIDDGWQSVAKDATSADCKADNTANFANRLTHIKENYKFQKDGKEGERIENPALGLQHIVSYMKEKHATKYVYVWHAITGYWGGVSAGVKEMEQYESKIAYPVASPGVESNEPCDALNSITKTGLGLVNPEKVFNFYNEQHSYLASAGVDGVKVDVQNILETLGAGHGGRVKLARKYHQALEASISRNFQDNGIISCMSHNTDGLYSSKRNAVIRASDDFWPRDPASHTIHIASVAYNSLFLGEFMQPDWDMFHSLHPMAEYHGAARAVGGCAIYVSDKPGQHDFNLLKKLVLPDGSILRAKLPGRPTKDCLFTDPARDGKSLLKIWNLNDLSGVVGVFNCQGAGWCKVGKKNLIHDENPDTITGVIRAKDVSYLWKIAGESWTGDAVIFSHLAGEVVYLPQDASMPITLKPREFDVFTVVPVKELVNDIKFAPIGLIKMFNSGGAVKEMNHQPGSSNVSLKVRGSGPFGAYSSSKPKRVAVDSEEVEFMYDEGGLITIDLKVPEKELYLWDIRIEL
Procedure: (§1) For routine analysis and monitoring the activity in the purification steps, alpha-galactosidase was assayed as described by Smart and Pharr (“Characterization of alpha-galactosidase from cucumber leaves”, Plant Physiology, 66:731-734, 1980), using p-nitrophenyl alpha-galactoside (pNPG) as substrate. Reaction was initiated by adding 50 μl enzyme aliquot to either 200 μl 100 mM pH 5.5 McIlvaine buffer or 100 mM pH 7.5 HEPES buffer, containing 5 mM pNPG at 35 C. The reaction was terminated after 10 min by adding 1 ml of 5% (w/v) Na2CO3 and activity expressed as nmol nitrophenol per min as measured at 410 nm. […] The assay was started by adding 50 μl enzyme preparation at 35 C and terminated after 10 to 20 min by 2 min boiling.
The fractions from the DEAE-Sepharose chromatography which were active at pH 7.5 were pooled and dialyzed against buffer A for 12 h prior to loading onto an HPLC ion exchange chromatography column (Mono-Q HR 5/5, Pharmacia, Uppsala, Sweden), previously equilibrated with buffer A. Bound proteins were eluted with a linear gradient of 0.1 to 0.45 M NaCl and the active fractions were detected using pNPG as substrate at pH 7.5 as described above. […] For the further purification of Form II the active fractions of the peak II were chromatographed on hydrophobic interaction chromatography. The fractions were pooled, brought to 1 M (NH4)2SO4 and loaded on to a hydrophobic interaction column (phenyl-Sepharose CL-4B, 0.5×12 cm, Pharmacia, Uppsala, Sweden) previously equilibrated with buffer A containing 1 M (NH4)2SO4. The protein was eluted with a reverse stepwise gradient from 1 to 0 M (NH4)2SO4 with 50 mM intervals in buffer A. Fractions containing the activity peak were collected and dialyzed for 12 h against buffer A and the dialysate was concentrated by reverse dialysis against solid sucrose. The enzyme, partially purified by hydrophobic interaction chromatography, was used for the characterization of Form II. The active fractions from the hydrophobic interaction column were further purified. Active fractions were separated electrophoretically using a Mini Prep Cell (Bio-Rad Laboratories, Hercules, Calif.) for discontinuous native-PAGE with 7% polyacrylamide, according to manufacturer's instructions. Fractions (0.25 ml/fraction) were assayed at pH 7.5 with pNPG as substrate for the activity. The active fractions were pooled, concentrated by Vivaspin Concentrator (Vivascience LTD, Lincoln, England), and run in a 8% SDS-PAGE. Proteins in the SDS-PAGE were identified using Coomassie Blue staining.
Therefore, the active fractions from the Mono-Q column were used for the characterization of Form I. In addition, the Form I enzyme was further purified, as described in the following section.

[2] = test system: melon (Cucumis melo) fruit acid form alpha-galactosidase; test: Inhibition of acid alpha-galactosidase by alternative substrate (galactose release); assay type: biochemical, muskmelon (Cucumis melo L. cv C-8); conditions: 80 mM stachyose added to 10 mM raffinose
Procedure: For routine analysis and monitoring the activity in the purification steps, alpha-galactosidase was assayed as described by Smart and Pharr (“Characterization of alpha-galactosidase from cucumber leaves”, Plant Physiology, 66:731-734, 1980), using p-nitrophenyl alpha-galactoside (pNPG) as substrate. […] The reaction was terminated after 10 min by adding 1 ml of 5% (w/v) Na2CO3 and activity expressed as nmol nitrophenol per min as measured at 410 nm. […] The substrate specificity of the alpha-galactosidases was tested with pNPG, stachyose, raffinose, melibiose or guar gum (Sigma).

[3] = test system: Cucurbita pepo leaf alkaline alpha-galactosidase ("LIV" enzyme); conditions: Gaudreault and Webb; alkaline form; cited from earlier work
[4] = biological target: T1, melon (Cucumis melo) fruit alkaline alpha-galactosidase Form I; test: Inhibition of alkaline alpha-galactosidase Form I by alternative substrate (galactose release); assay type: biochemical, muskmelon (Cucumis melo L. cv C-8); parameters: native 84 kDa, denatured 79 kDa; assayed at pH 7.5
Procedure: as §1

OC[C@H]1O[C@H](OC[C@H]2O[C@H](OC[C@H]3O[C@H](O[C@]4(CO)O[C@H](CO)[C@@H](O)[C@@H]4O)[C@H](O)[C@@H](O)[C@@H]3O)[C@H](O)[C@@H](O)[C@H]2O)[C@H](O)[C@@H](O)[C@H]1O [Stachyose, O-alpha-D-galactopyranosyl-(1-6)-O-alpha-D-galactopyranosyl-(1-6)-O-alpha-D-glucopyranosyl-(1-2)-beta-D-fructofuranoside]
Vmax/Km ratio [1]: 0.06
Vmax ([1]; Lineweaver-Burk): 0.24 μmol mg^−1 protein min^−1
inhibition by excess stachyose (free galactose release) [2]: 45%
Km [3]: 4.5 mM
inhibition by excess stachyose (free galactose release, in words) [4]: negligible; also recorded: does not decrease
